Measured values from patent publication US20230131899A1, “INHIBITORS OF MICROBIALLY INDUCED AMYLOID” (Axial Therapeutics, Inc., priority 2020, published 2023).
Where two headings read alike, the source gives them in different places.

Target: T1, E. coli CsgA (Escherichia coli, UniProt P28307)
T1 construct: made in house; host or cells: E. coli NEB 3016 slyD::kan, pET11d
Assay: In vitro ThioflavinT assay of CsgA aggregation (CsgA ThT Assay)
Type: biochemical
Conditions: for remaining activity at 25 µM: compound 25 μM; for remaining activity at 100 µM: compound 100 μM
Experimental: In vitro ThioflavinT assay to determine effects of compounds on CsgA aggregation. To assess the effects of compounds on aggregation of E. coli CsgA, a cell-free assay was performed using purified CsgA and Thioflavin T. In the assay, histidine-tagged CsgA was over-expressed in E. coli NEB 3016 slyD::kan cells harboring a pET11d vector containing a C-terminal 6× His tag. Following growth in rich media, CsgA production is induced at an OD600 of approximately 1.0 by addition of 0.5 mM IPTG (isopropyl beta-D-1-thiogalactopyranoside) followed by incubation at 37° C. for 1-4 hours with shaking at 200-250 rpm. Bacteria were resuspended in 8 M guanidine hydrochloride in 50 mM potassium phosphate buffer, pH 7.3 and lysed by sonication on ice using three 20 second intervals. The resulting lysate was incubated on a platform rocker for 1 hour at room temperature. After centrifugation at 10,000×g for 20 minutes, the supernatant was further sonicated on ice for three 20 second intervals and then incubated with nickel-nitrilotriacetic acid resin (Sigma) at room temperature for 1 hour in a 50 mL conical tube on a platform rocker. The resin was washed and pelleted 5 times with 45 mL 8 M guanidine in 50 mM potassium phosphate buffer pH 7.3. The resin was further washed and pelleted two times with 8 M guanidine hydrochloride in 50 mM potassium phosphate buffer pH 7.3 containing 12.5 mM imidazole. Purified CsgA protein was eluted two times with 5 mL of 6-8 M guanidine hydrochloride in 50 mM potassium phosphate buffer, pH 7.3 containing 250 mM imidazole. The eluted protein was aliquoted with 150 μL per aliquot, snap frozen in liquid nitrogen, and stored at −80 C. In order to obtain monomeric CsgA, the purified CsgA protein was thawed and passed through two pre-chilled desalting columns (Zeba) to remove imidazole and guanidine. The buffer exchanged protein was loaded onto a 30-kDa centrifugal filter unit (Amicon) and spun for 30 minutes at 7500×g to remove dimers and other oligomers. Protein concentration was assessed by the NanoDrop technique (Thermo Scientific), as is familiar to one skilled in the art. The CsgA aggregation assay was conducted in 96-well black non-binding surface or white untreated microplates with 20-40 μM ThioflavinT, 50 mM potassium phosphate buffer pH 7.3, 1% DMSO, CsgA at 2-20 μM, and compounds at 3.125-200 uM. The vehicle control wells contain all components of the assay except test compounds and represent the level of CsgA aggregation in the absence of any inhibitor or accelerator. Plates were incubated at room temperature in a Tecan Nano F200 plate reader with excitation at 438 nm using a 439 nm filter with a bandwidth of 8 nm, and emission at 495 nm with a 490 nm filter with a bandwidth of 10 nm, or in a SpectraMax M5, SpectraMax M2 or SpectraMax® i3X (Molecular Devices, San Jose, Calif.) spectrophotometer with excitation at 438 nm and emission at 495 nm. During the assay, plates were shaken initially for 5 seconds and subsequently for 3 seconds prior to fluorescent readings. Readings were performed every 15 minutes for up to 1005 minutes. The effect of compounds on CsgA aggregation in the assay was determined with data from 0-17 hours. Fluorescence values for each compound with CsgA were first adjusted by subtracting the average fluorescence of the compound in the absence of CsgA or in the presence of CsgA and compound at time 0 or 15 minutes. The data were analyzed in several ways:
1. The adjusted ThT fluorescence values were normalized by dividing them by the average fluorescence in the vehicle control wells containing CsgA. The median normalized fluorescence from 6-6.5 hours or 8-9 hours with the compound was expressed as a percentage of the median fluorescence observed in vehicle controls over the same time period. Percent inhibition of CsgA aggregation by a compound was determined by subtracting the percent average fluorescence with the compound relative to the vehicle controls from 100%. […]

[1] = read-out: CsgA ThT Assay (10 μM CsgA) % Control AUC at 1005 minutes, 25 μM (activity range), CsgA 10 μM, black plates, 1005 minutes, class symbol
[2] = read-out: CsgA ThT Assay (10 μM CsgA) % Control AUC at 1005 minutes, 25 μM, mean AUC as % of DMSO control, CsgA 10 μM, black plates, 1005 minutes
[3] = read-out: CsgA ThT Assay (10 μM CsgA) % Control AUC at 1005 minutes, 100 μM (activity range), CsgA 10 μM, black plates, 1005 minutes, class symbol
[4] = read-out: CsgA ThT Assay (10 μM CsgA) % Control AUC at 1005 minutes, 100 μM, mean AUC as % of DMSO control, CsgA 10 μM, black plates, 1005 minutes
[5] = read-out: CsgA ThT Assay (2 μM CsgA) % Control Bmax 25 μM, activity range, class symbol, CsgA 2 μM, white plates
[6] = read-out: CsgA ThT Assay (2 μM CsgA) % Control Bmax 25 μM, mean Bmax as percentage of DMSO control, CsgA 2 μM, white plates
[7] = read-out: CsgA ThT Assay (2 μM CsgA) % Control Bmax 100 μM, activity range, class symbol, CsgA 2 μM, white plates
[8] = read-out: CsgA ThT Assay (2 μM CsgA) % Control Bmax 100 μM, mean Bmax as percentage of DMSO control, CsgA 2 μM, white plates

T1 sequence (P28307 23-151): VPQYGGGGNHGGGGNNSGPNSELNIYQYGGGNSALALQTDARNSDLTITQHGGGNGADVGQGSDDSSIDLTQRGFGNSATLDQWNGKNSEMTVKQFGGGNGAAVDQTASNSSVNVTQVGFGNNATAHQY

| Structure (SMILES) | remaining activity at 25 µM [1] | remaining activity at 25 µM [2] | remaining activity at 100 µM [3] | remaining activity at 100 µM [4] | remaining activity at 25 µM [5] | remaining activity at 25 µM [6] | remaining activity at 100 µM [7] | remaining activity at 100 µM [8] |
| --- | --- | --- | --- | --- | --- | --- | --- | --- |
| O=C(O)[C@@H]1CNS(=O)(=O)c2c(-c3cccc(C(F)(F)F)c3)c(Cc3cccc4ccccc34)cc(=O)n21 (single isomer, unassigned) [Compound 009a] | 31 to 60% | 46% | 11 to 31% | 17% | – | – | – | – |
| O=C(O)[C@H]1CNS(=O)(=O)c2c(-c3cccc(C(F)(F)F)c3)c(Cc3cccc4ccccc34)cc(=O)n21 (single isomer, unassigned) [Compound 009b] | > 60% | 67% | 31 to 60% | 37% | – | – | – | – |
| O=C(O)CCCCN1CC(C(=O)O)n2c(c(-c3cccc(C(F)(F)F)c3)c(Cc3cccc4ccccc34)cc2=O)S1(=O)=O (centres unmarked) [Compound 039, 2-(4-carboxybutyl)-8-(naphthalen-1-ylmethyl)-6-oxo-9-(3-(trifluoromethyl)phenyl)-3,4-dihydro-2H,6H-pyrido[1,2-e][1,2,5]thiadiazine-4-carboxylic acid 1,1-dioxide] | > 60% | 92% | 11 to 31% | 24% | – | – | – | – |
| CCc1c(Cc2cccc3ccccc23)c(-c2cccc(C(F)(F)F)c2)c2n(c1=O)C(C(=O)O)CN(C)S2(=O)=O (centres unmarked) [Compound 076, 7-ethyl-2-methyl-8-(naphthalen-1-ylmethyl)-6-oxo-9-(3-(trifluoromethyl)phenyl)-3,4-dihydro-2H,6H-pyrido[1,2-e][1,2,5]thiadiazine-4-carboxylic acid 1,1-dioxide] | 11 to 31% | 17% | 11 to 31% | 14% | – | – | – | – |
| O=C(O)C1CN(C(=O)OCc2ccccc2)c2c(-c3cccc(C(F)(F)F)c3)c(Cc3cccc4ccccc34)cc(=O)n21 (centres unmarked) [Compound 103, 1-((benzyloxy)carbonyl)-7-(naphthalen-1-ylmethyl)-5-oxo-8-(3-(trifluoromethyl)phenyl)-1,2,3,5-tetrahydroimidazo[1,2-a]pyridine-3-carboxylic acid] | > 60% | 95% | > 60% | 102% | – | – | – | – |
| Cn1cc(C(=O)O)n2c(=O)cc(Cc3cccc4ccccc34)c(-c3cccc(C(F)(F)F)c3)c12 [Compound 111, 1-methyl-7-(naphthalen-1-ylmethyl)-5-oxo-8-(3-(trifluoromethyl)phenyl)-1,5-dihydroimidazo[1,2-a]pyridine-3-carboxylic acid] | > 60% | 98% | > 60% | 95% | – | – | – | – |
| CCCN1CC(C(=O)O)n2c(c(-c3cccc(C(F)(F)F)c3)c(Cc3cccc4ccccc34)c(OCc3ccccc3)c2=O)S1(=O)=O (centres unmarked) [Compound 146, 7-(benzyloxy)-8-(naphthalen-1-ylmethyl)-6-oxo-2-propyl-9-(3-(trifluoromethyl)phenyl)-3,4-dihydro-2H,6H-pyrido[1,2-e][1,2,5]thiadiazine-4-carboxylic acid 1,1-dioxide] | – | – | – | – | > 60% | 113% | > 60% | 63% |
| CCCOc1c(Cc2cccc3ccccc23)c(-c2cccc(C(F)(F)F)c2)c2n(c1=O)C(C(=O)O)CN(CCC)S2(=O)=O (centres unmarked) [Compound 147, 8-(naphthalen-1-ylmethyl)-6-oxo-7-propoxy-2-propyl-9-(3-(trifluoromethyl)phenyl)-3,4-dihydro-2H,6H-pyrido[1,2-e][1,2,5]thiadiazine-4-carboxylic acid 1,1-dioxide] | – | – | – | – | > 60% | 101% | > 60% | 139% |
| CCCN1CC(C(=O)O)n2c(c(-c3cccc(C(F)(F)F)c3)c(Cc3cccc4ccccc34)c(OC(C)C)c2=O)S1(=O)=O (centres unmarked) [Compound 148, 7-isopropoxy-8-(naphthalen-1-ylmethyl)-6-oxo-2-propyl-9-(3-(trifluoromethyl)phenyl)-3,4-dihydro-2H,6H-pyrido[1,2-e][1,2,5]thiadiazine-4-carboxylic acid 1,1-dioxide] | – | – | – | – | > 60% | 79% | > 60% | 113% |
| CCCN1CC(C(=O)O)n2c(c(-c3cccc(C(F)(F)F)c3)c(Cc3cccc4ccccc34)c(NC(C)C)c2=O)S1(=O)=O (centres unmarked) [Compound 149, 7-(isopropylamino)-8-(naphthalen-1-ylmethyl)-6-oxo-2-propyl-9-(3-(trifluoromethyl)phenyl)-3,4-dihydro-2H,6H-pyrido[1,2-e][1,2,5]thiadiazine-4-carboxylic acid 1,1-dioxide] | – | – | – | – | > 60% | 98% | > 60% | 115% |
| O=C(O)C1CN(Cc2ccccc2)c2c(-c3cccc(C(F)(F)F)c3)c(CN3CCCCC3)c(Cl)c(=O)n21 (centres unmarked) [Compound 218, 1-benzyl-6-chloro-5-oxo-7-(piperidin-1-ylmethyl)-8-(3-(trifluoromethyl)phenyl)-1,2,3,5-tetrahydroimidazo[1,2-a]pyridine-3-carboxylic acid] | – | – | – | – | > 60% | 115% | > 60% | 109% |
